Values quoted from earlier work in patent US5990317A, “2-(1H-4(5)-imidazoyl) cyclopropyl compounds” (Gliatech, Inc., priority 1998, dated 1999).
Read-outs that look alike come from different tables or passages of the source.

Legend:
[1] = tested on: electrically-induced convulsions; conditions: cited from earlier work
H3 receptor [2] = conditions: cat; cited from earlier work
histamine = conditions: in vivo; cited from earlier work
H3 receptor [3] = conditions: rats; cited from earlier work
arousal EEG pattern = conditions: intraventricular, rabbits; cited from earlier work
[4] = tested on: spontaneous locomotor activity, grooming and exploratory behavior; conditions: intraventricular, saline and pentobarbital-treated rats; cited from earlier work

| Compound | durations of every convulsive phase ([1]; electrically-induced convulsions) | electroconvulsive threshold ([1]; in vivo) | wakefulness (H3 receptor [2]) | synthesis and release of histamine (histamine) | slow wave and REM sleep (H3 receptor [3]) | wakefulness (H3 receptor [3]) | arousal EEG pattern (arousal EEG pattern) | spontaneous locomotor activity, grooming, and exploratory behavior [4] |
| --- | --- | --- | --- | --- | --- | --- | --- | --- |
| S=C(NC1CCCCC1)N1CCC(c2cnc[nH]2)CC1 [thioperamide] | significantly and dose-dependently decrease the durations of every convulsive phase | increase the electroconvulsive threshold | enhanced wakefulness in a dose-dependent fashion | increase in synthesis and release of histamine | decrease slow wave and REM sleep | increase wakefulness |  |  |
| NCCc1c[nH]cn1 [histamine] |  |  |  |  |  |  | induces the appearances of an arousal EEG pattern | increased spontaneous locomotor activity, grooming and exploratory behavior |
